Converted amounts (≈) assume the structure as drawn. Read-outs that look alike come from different tables or passages of the source. Starred links: 1 amine or outer side, 2 acyl side, 3 side chain; linkers in the order of their positions; H or OH if unused. Positions of bridges follow the written chain, without caps; N, C: chain ends. Residues, ends and D or L forms follow the SMILES beside them. *: point of attachment. C18 diacid = O=C(O)CCCCCCCCCCCCCCCCC(=O)*; γGlu = O=C(O)[C@H](CCC(=O)[*:2])N[*:1]; AEEA = NCCOCCOCC(=O)O
What was measured:
[1] = biological target: T1, human natriuretic peptide receptor 2 (hNPR2) (Homo sapiens, UniProt P20594); assay: In vitro hNPR2 activity assay (cGMP GloSensor reporter, HEK293); type: cell-based; conditions: potency relative to CNP22 (0065)
T1 construct: expressed in transfected cells; host or cells: HEK293 (ATCC CRL-1573), clone 35, co-transfected with pGloSensor-42F
T1 sequence (P20594 23-1047): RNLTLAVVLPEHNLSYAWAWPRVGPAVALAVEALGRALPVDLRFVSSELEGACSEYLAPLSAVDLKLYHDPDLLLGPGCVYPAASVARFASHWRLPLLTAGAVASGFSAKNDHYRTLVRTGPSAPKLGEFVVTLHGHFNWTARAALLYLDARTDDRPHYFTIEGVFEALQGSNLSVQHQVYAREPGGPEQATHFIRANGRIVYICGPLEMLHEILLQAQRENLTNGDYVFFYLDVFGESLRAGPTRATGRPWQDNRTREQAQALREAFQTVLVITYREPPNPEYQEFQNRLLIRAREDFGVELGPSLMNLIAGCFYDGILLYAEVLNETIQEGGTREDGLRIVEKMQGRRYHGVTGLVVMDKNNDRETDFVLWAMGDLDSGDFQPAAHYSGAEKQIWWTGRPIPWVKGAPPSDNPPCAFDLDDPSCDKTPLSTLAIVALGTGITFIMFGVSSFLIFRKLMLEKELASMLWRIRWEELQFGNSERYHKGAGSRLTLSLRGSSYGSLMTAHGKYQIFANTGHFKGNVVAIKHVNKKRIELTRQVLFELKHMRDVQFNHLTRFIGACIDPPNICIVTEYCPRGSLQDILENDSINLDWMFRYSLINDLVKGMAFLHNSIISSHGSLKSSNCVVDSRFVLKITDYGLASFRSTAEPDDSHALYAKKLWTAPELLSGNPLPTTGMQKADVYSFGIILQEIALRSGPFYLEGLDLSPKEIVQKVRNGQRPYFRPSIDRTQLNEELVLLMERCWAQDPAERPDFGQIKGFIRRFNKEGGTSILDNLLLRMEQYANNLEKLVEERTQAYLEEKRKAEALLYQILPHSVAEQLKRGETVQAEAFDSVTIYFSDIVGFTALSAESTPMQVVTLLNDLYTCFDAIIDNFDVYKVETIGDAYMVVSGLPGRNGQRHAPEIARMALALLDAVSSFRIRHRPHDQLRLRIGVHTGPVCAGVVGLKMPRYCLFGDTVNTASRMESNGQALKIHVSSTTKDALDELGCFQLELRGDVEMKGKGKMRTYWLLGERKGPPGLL
In short: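 Potency is the EC50 from a four-parameter logistic fit, also expressed relative to the in-plate CNP22 control (×100), with at least two replicates. Compounds (ten concentrations, […], HSA-free diluent with 1% OVA, 0.01% Tween20) were incubated 30 min at 37 °C on HEK293 cells co-expressing hNPR2 and a GloSensor cGMP luciferase. Luminescence detected with Bright-Glo.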

[2] = Solubility of CNP compounds at pH 4.0 and pH 6.5; type: physicochemical
In short: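 Supernatant peptide concentration was quantified by CAD after overnight room-temperature equilibration of incompletely dissolved samples. Nominal loading was ≥4000-5000 nmol/mL. Media were pH 4.0 sodium acetate 5 mM/glycerol 250 mM, or pH 6.5 sodium phosphate 8 mM/glycerol 23 mg/mL reached by stepwise NaOH addition.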

[3] = 8 mM sodium phosphate, 23 mg/mL glycerol, pH 6.5, room temperature, read-out: Solubility at pH 6.5

Structure (SMILES)	hNPR2 0% HSA. [EC50% rel CNP] [1] [%]	solubility ([2]; 5 mM sodium acetate, 250 mM glycerol, pH 4.0, room temperature, read-out: Solubility at pH 4.0) [mM]	solubility [2, 3] [mM]
CC[C@H](C)[C@@H]1NC(=O)[C@H](CCCNC(=N)N)NC(=O)[C@H](CC(=O)O)NC(=O)[C@H](CC(C)C)NC(=O)[C@@H]2CCCN2C(=O)[C@H](CC(C)C)NC(=O)CNC(=O)[C@H](Cc2ccccc2)NC(=O)[C@@H](NC(=O)CNC(=O)[C@H](CO)NC(=O)[C@H](CO)NC(=O)[C@@H](NC(=O)CNC(=O)[C@@H](NC(=O)[C@H](Cc2c[nH]cn2)NC(=O)[C@H](CCC(N)=O)NC(=O)[C@H](C)NC(=O)CNC(=O)[C@H](Cc2c[nH]cn2)NC(=O)[C@H](Cc2ccc(O)cc2)NC(=O)[C@H](CCCCN)NC(=O)[C@H](CCCNC(=N)N)NC(=O)[C@H](C)NC(=O)COCCOCCNC(=O)COCCOCCNC(=O)CC[C@H](NC(=O)CCCCCCCCCCCCCCCCC(=O)O)C(=O)O)[C@@H](C)O)C(C)C)CSSC[C@@H](C(=O)O)NC(=O)CNC(=O)[C@H](CC(C)C)NC(=O)CNC(=O)[C@H](CO)NC(=O)[C@H](CC(C)C)NC(=O)[C@H](CO)NC(=O)CNC1=O [compound 1351] ({C18 diacid-γGlu-AEEA-AEEA}-ARKYHGAQHTGVSSGCFGLPLDRIGSLSGLGC-OH; disulfide 16-32)	55.2	6.17 (≈ 24.4 mg/mL)	
CC[C@H](C)[C@@H]1NC(=O)[C@H](CCCNC(=N)N)NC(=O)[C@H](CC(=O)O)NC(=O)[C@H](CC(C)C)NC(=O)[C@@H]2CCCN2C(=O)[C@H](CC(C)C)NC(=O)CNC(=O)[C@H](Cc2ccccc2)NC(=O)[C@@H](NC(=O)CNC(=O)[C@H](CO)NC(=O)[C@H](CO)NC(=O)[C@@H](NC(=O)CNC(=O)[C@@H](NC(=O)[C@H](CCCCN)NC(=O)[C@H](CCC(N)=O)NC(=O)[C@H](C)NC(=O)CNC(=O)[C@H](Cc2c[nH]cn2)NC(=O)[C@H](Cc2ccc(O)cc2)NC(=O)COCCOCCNC(=O)COCCOCCNC(=O)COCCOCCNC(=O)CC[C@H](NC(=O)CCCCCCCCCCCCCCCCC(=O)O)C(=O)O)[C@@H](C)O)C(C)C)CSSC[C@@H](C(=O)O)NC(=O)CNC(=O)[C@H](CC(C)C)NC(=O)CNC(=O)[C@H](CO)NC(=O)[C@H](CC(C)C)NC(=O)[C@H](CO)NC(=O)CNC1=O [compound 1352] ({C18 diacid-γGlu-AEEA-AEEA-AEEA}-YHGAQKTGVSSGCFGLPLDRIGSLSGLGC-OH; disulfide 13-29)	38.6		7.73 (≈ 28.9 mg/mL)
CC[C@H](C)[C@@H]1NC(=O)[C@H](CCCNC(=N)N)NC(=O)[C@H](CC(=O)O)NC(=O)[C@H](CC(C)C)NC(=O)[C@@H]2CCCN2C(=O)[C@H](CC(C)C)NC(=O)CNC(=O)[C@H](Cc2ccccc2)NC(=O)[C@@H](NC(=O)CNC(=O)[C@H](CO)NC(=O)[C@H](CO)NC(=O)[C@@H](NC(=O)CNC(=O)[C@@H](NC(=O)[C@H](CCCCN)NC(=O)[C@H](CCC(N)=O)NC(=O)[C@H](C)NC(=O)CNC(=O)[C@H](Cc2c[nH]cn2)NC(=O)[C@H](Cc2ccc(O)cc2)NC(=O)[C@H](CCCCN)NC(=O)[C@H](CCCNC(=N)N)NC(=O)[C@H](C)NC(=O)COCCOCCNC(=O)COCCOCCNC(=O)CC[C@H](NC(=O)CC[C@H](NC(=O)CCCCCCCCCCCCCCCCC(=O)O)C(=O)O)C(=O)O)[C@@H](C)O)C(C)C)CSSC[C@@H](C(=O)O)NC(=O)CNC(=O)[C@H](CC(C)C)NC(=O)CNC(=O)[C@H](CO)NC(=O)[C@H](CC(C)C)NC(=O)[C@H](CO)NC(=O)CNC1=O [compound 1354] ({C18 diacid-γGlu-γGlu-AEEA-AEEA}-ARKYHGAQKTGVSSGCFGLPLDRIGSLSGLGC-OH; disulfide 16-32)	27.5		0.44 (≈ 1.8 mg/mL)
CC[C@H](C)[C@@H]1NC(=O)[C@H](CCCNC(=N)N)NC(=O)[C@H](CC(=O)O)NC(=O)[C@H](CC(C)C)NC(=O)[C@@H]2CCCN2C(=O)[C@H](CC(C)C)NC(=O)CNC(=O)[C@H](Cc2ccccc2)NC(=O)[C@@H](NC(=O)CNC(=O)[C@H](CCCCN)NC(=O)[C@H](CO)NC(=O)[C@H](CC(C)C)NC(=O)CNC(=O)[C@H](CCCCN)NC(=O)[C@H](CCCCN)NC(=O)[C@H](CCC(N)=O)NC(=O)[C@H](C)NC(=O)CNC(=O)[C@H](CCC(=O)O)NC(=O)[C@H](Cc2ccc(O)cc2)NC(=O)COCCOCCNC(=O)COCCOCCNC(=O)COCCOCCNC(=O)COCCOCCNC(=O)CC[C@H](NC(=O)CCCCCCCCCCCCCCCCC(=O)O)C(=O)O)CSSC[C@@H](C(=O)O)NC(=O)CNC(=O)[C@H](CC(C)C)NC(=O)CNC(=O)[C@H](CO)NC(=O)[C@H](CC(C)C)NC(=O)[C@H](CO)NC(=O)CNC1=O [compound 1375] ({C18 diacid-γGlu-AEEA-AEEA-AEEA-AEEA}-YEGAQKKGLSKGCFGLPLDRIGSLSGLGC-OH; disulfide 13-29; C-terminus assumed)	16.2		3.13 (≈ 12.4 mg/mL)
CC[C@H](C)[C@@H]1NC(=O)[C@H](CCCNC(=N)N)NC(=O)[C@H](CC(=O)O)NC(=O)[C@H](CC(C)C)NC(=O)[C@@H]2CCCN2C(=O)[C@H](CC(C)C)NC(=O)CNC(=O)[C@H](Cc2ccccc2)NC(=O)[C@@H](NC(=O)CNC(=O)[C@H](CCCCN)NC(=O)[C@H](CO)NC(=O)CNC(=O)CNC(=O)[C@H](CCCCN)NC(=O)[C@H](CCCCN)NC(=O)[C@H](CCC(N)=O)NC(=O)[C@H](C)NC(=O)CNC(=O)[C@H](CCC(=O)O)NC(=O)[C@H](Cc2ccc(O)cc2)NC(=O)COCCOCCNC(=O)COCCOCCNC(=O)CC[C@H](NC(=O)CCCCCCCCCCCCCCCCC(=O)O)C(=O)O)CSSC[C@@H](C(=O)O)NC(=O)CNC(=O)[C@H](CC(C)C)NC(=O)CNC(=O)[C@H](CO)NC(=O)[C@H](CC(C)C)NC(=O)[C@H](CO)NC(=O)CNC1=O [compound 1377] ({C18 diacid-γGlu-AEEA-AEEA}-YEGAQKKGGSKGCFGLPLDRIGSLSGLGC-OH; disulfide 13-29)	28.2		0.443 (≈ 1.6 mg/mL)
CC[C@H](C)[C@@H]1NC(=O)[C@H](CCCNC(=N)N)NC(=O)[C@H](CC(=O)O)NC(=O)[C@H](CC(C)C)NC(=O)[C@@H]2CCCN2C(=O)[C@H](CC(C)C)NC(=O)CNC(=O)[C@H](Cc2ccccc2)NC(=O)[C@@H](NC(=O)CNC(=O)[C@H](CO)NC(=O)[C@H](CO)NC(=O)[C@H](CC(C)C)NC(=O)CNC(=O)[C@H](CCCCN)NC(=O)[C@H](CCCCN)NC(=O)[C@H](CCC(N)=O)NC(=O)[C@H](C)NC(=O)CNC(=O)[C@H](CCC(=O)O)NC(=O)[C@H](Cc2ccc(O)cc2)NC(=O)CNC(=O)CNC(=O)CNC(=O)COCCOCCNC(=O)COCCOCCNC(=O)CC[C@H](NC(=O)CCCCCCCCCCCCCCCCC(=O)O)C(=O)O)CSSC[C@@H](C(=O)O)NC(=O)CNC(=O)[C@H](CC(C)C)NC(=O)CNC(=O)[C@H](CO)NC(=O)[C@H](CC(C)C)NC(=O)[C@H](CO)NC(=O)CNC1=O [compound 1378] ({C18 diacid-γGlu-AEEA-AEEA}-GGGYEGAQKKGLSSGCFGLPLDRIGSLSGLGC-OH; disulfide 16-32)	28.6		8.92 (≈ 33.9 mg/mL)
CC[C@H](C)[C@@H]1NC(=O)[C@H](CCCNC(=N)N)NC(=O)[C@H](CC(=O)O)NC(=O)[C@H](CC(C)C)NC(=O)[C@@H]2CCCN2C(=O)[C@H](CC(C)C)NC(=O)CNC(=O)[C@H](Cc2ccccc2)NC(=O)[C@@H](NC(=O)CNC(=O)[C@H](CO)NC(=O)[C@H](CO)NC(=O)[C@H](CC(C)C)NC(=O)CNC(=O)[C@H](CCCCN)NC(=O)[C@H](CCCCN)NC(=O)[C@H](CCC(N)=O)NC(=O)[C@H](C)NC(=O)CNC(=O)[C@H](CCC(=O)O)NC(=O)[C@H](Cc2ccc(O)cc2)NC(=O)[C@H](CO)NC(=O)[C@H](CCCNC(=N)N)NC(=O)[C@H](C)NC(=O)[C@H](CCC(N)=O)NC(=O)[C@@H]2CCCN2C(=O)[C@H](Cc2c[nH]cn2)NC(=O)[C@H](CCC(=O)O)NC(=O)[C@H](CCC(N)=O)NC(=O)COCCOCCNC(=O)COCCOCCNC(=O)CC[C@H](NC(=O)CCCCCCCCCCCCCCCCC(=O)O)C(=O)O)CSSC[C@@H](C(=O)O)NC(=O)CNC(=O)[C@H](CC(C)C)NC(=O)CNC(=O)[C@H](CO)NC(=O)[C@H](CC(C)C)NC(=O)[C@H](CO)NC(=O)CNC1=O [compound 1379] ({C18 diacid-γGlu-AEEA-AEEA}-QEHPQARSYEGAQKKGLSSGCFGLPLDRIGSLSGLGC-OH; disulfide 21-37; C-terminus assumed)	33.5		2.67 (≈ 12.2 mg/mL)

Source: patent US20240209028A1, “CNP COMPOUNDS” (priority 2022, published 2024)
